Laboratory results taken from article PMC7182988 (Saudi Journal of Biological Sciences, 2020).
Entries after “also recorded” stand apart in the source; their conditions may differ. Where two headings read alike, the source gives them in different places.

Legend:
[1] = target: human recombinant COX-1 (Homo sapiens, UniProt P23219); assay: COX-1; assay type: biochemical; details: for Selectivity IC50 COX-1/IC50 COX-2: defined as IC50 COX-1/IC50 COX-2; for inhibition at 40 µg/mL: read-out: COX-1% (percentage of inhibition of COX-1); for COX-1% (percentage of inhibition of COX-1): at 40 μg/mL
[2] = target: T1, human recombinant COX-2 (Homo sapiens, UniProt P35354); assay: COX-2; assay type: biochemical; details: for inhibition at 40 µg/mL: read-out: COX-2% (percentage of inhibition of COX-2); for COX-2% (percentage of inhibition of COX-2): at 40 μg/mL
T1 sequence (P35354 18-604): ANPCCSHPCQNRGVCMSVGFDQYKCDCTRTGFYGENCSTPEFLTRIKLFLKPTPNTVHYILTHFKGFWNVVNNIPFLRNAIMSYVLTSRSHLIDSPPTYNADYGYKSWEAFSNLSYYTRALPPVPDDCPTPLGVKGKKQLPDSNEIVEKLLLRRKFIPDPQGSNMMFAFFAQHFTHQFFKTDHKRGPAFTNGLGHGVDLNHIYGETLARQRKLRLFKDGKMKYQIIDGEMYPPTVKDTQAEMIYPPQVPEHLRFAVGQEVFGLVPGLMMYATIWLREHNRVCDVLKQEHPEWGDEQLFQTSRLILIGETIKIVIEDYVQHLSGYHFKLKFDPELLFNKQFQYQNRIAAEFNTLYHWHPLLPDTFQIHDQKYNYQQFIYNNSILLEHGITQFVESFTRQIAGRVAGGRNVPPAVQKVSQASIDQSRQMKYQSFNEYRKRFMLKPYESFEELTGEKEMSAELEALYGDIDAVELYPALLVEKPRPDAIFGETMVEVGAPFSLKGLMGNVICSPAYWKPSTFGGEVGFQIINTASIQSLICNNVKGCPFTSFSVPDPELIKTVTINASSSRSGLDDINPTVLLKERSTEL

[3] = system: LPS-induced IL-6 in WI-38 fibroblast cells; assay: ELISA assay for IL-6 release in LPS-stimulated cells; assay type: cell-based; details: for inhibition of IL-6 release (in words): LPS-stimulated WI-38 fibroblast cells; for IL-6 (pg/ml)% (percentage of inhibition of IL-6): WI-38 cells, test compounds 10 µM, LPS 0.5 µg/mL, LPS alone = 100
[4] = system: LPS-induced TNF-α in WI-38 fibroblast cells; assay: ELISA assay for TNF-α release in LPS-stimulated cells; assay type: cell-based; details: for inhibition of TNF-α release (in words): LPS-stimulated WI-38 fibroblast cells; for TNF-α (pg/ml)% (percentage of inhibition of TNF-α): WI-38 cells, test compounds 10 µM, LPS 0.5 µg/mL, LPS alone = 100
[5] = read-out: COX-1 IC50 (μM ± SD), mean ± SD of triplicate experiments
[6] = read-out: COX-2 IC50 (μM ± SD), mean ± SD of triplicate experiments

Chain of human recombinant COX-1 (P23219 24-599): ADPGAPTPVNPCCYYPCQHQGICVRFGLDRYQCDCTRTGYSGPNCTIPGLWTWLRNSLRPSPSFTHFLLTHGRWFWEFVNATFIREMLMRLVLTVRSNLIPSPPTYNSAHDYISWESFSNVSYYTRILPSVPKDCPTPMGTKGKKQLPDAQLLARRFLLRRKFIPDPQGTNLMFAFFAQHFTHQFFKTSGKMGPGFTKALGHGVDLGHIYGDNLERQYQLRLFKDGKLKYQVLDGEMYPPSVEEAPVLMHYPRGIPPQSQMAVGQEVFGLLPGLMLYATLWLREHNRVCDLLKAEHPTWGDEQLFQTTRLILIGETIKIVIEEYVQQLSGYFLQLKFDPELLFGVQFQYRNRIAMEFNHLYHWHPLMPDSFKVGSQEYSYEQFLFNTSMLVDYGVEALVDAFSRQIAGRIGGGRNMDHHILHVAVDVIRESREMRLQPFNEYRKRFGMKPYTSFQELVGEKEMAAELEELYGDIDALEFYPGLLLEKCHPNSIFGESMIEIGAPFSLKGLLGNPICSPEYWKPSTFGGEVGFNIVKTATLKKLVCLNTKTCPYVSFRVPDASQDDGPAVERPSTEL

SMILES | IC50 [1] [µM] | Selectivity IC50 COX-1/IC50 COX-2 [1] [%] | inhibition at 40 µg/mL [1] [%] | IC50 [2] [µM] | inhibition at 40 µg/mL [2] [%] | further results
C[C@H]1[C@H](C)CC[C@]2(C)CC[C@]3(C)C(=CC[C@@H]4[C@@]5(C)CC[C@@H](O)[C@](C)(C(=O)O)[C@@H]5CC[C@]43C)[C@H]12 [β-Boswellic acid, reference compound] | 18.1 ± 0.42 | 18 | 64.8 | > 100 | 7.66 | –
Cc1ccc(-c2cc(C(F)(F)F)nn2-c2ccc(S(N)(=O)=O)cc2)cc1 [Celecoxib, reference compound] | – | – | – | – | – | IL-6 (pg/ml)% (percentage of inhibition of IL-6) ([3]; 10 µM): 24.77%
CC(=O)O[C@@H]1CC[C@@]2(C)[C@@H](CC[C@]3(C)[C@@H]2CC=C2[C@@H]4CC(C)(C)CC[C@]4(C)CC[C@]23C)[C@@]1(C)C(=O)O [Acetyl-α-boswellic acid, reference compound] | – | 10 | – | – | – | COX-1% (percentage of inhibition of COX-1) [1]: 69.81%; IC50 [1, 5]: 10.1 ± 0.17 µM; COX-2% (percentage of inhibition of COX-2) [2]: 7.98%; IC50 [2, 6]: > 100 µM; IL-6 (pg/ml)% (percentage of inhibition of IL-6) [3]: 15.73%; TNF-α (pg/ml)% (percentage of inhibition of TNF-α) [4]: 14.87%
CC(=O)O[C@@H]1CC[C@@]2(C)[C@@H](CC[C@]3(C)[C@@H]2C(=O)C=C2[C@@H]4[C@@H](C)[C@H](C)CC[C@]4(C)CC[C@]23C)[C@@]1(C)C(=O)O [Acetyl-keto boswellic acid, reference compound] | – | 10 | – | – | – | COX-1% (percentage of inhibition of COX-1) [1]: 71.42%; IC50 [1, 5]: 7.84 ± 0.13 µM; COX-2% (percentage of inhibition of COX-2) [2]: 19.87%; IC50 [2, 6]: 82.52 ± 0.62 µM; IL-6 (pg/ml)% (percentage of inhibition of IL-6) [3]: 7.31%; TNF-α (pg/ml)% (percentage of inhibition of TNF-α) [4]: 18.76%
COc1ccc2c(c1)c(CC(=O)O)c(C)n2C(=O)c1ccc(Cl)cc1 [Indomethacin, reference compound] | – | – | 87.3 | – | – | –
CC(=O)O[C@@H]1CC[C@@]2(C)[C@@H](CC[C@]3(C)[C@@H]2CC=C2[C@@H]4[C@@H](C)[C@H](C)CC[C@]4(C)CC[C@]23C)[C@@]1(C)C(=O)O [Acetyl-β-boswellic acid, reference compound] | – | 11 | – | – | – | COX-1% (percentage of inhibition of COX-1) [1]: 75.73%; IC50 [1, 5]: 8.16 ± 0.1 µM; COX-2% (percentage of inhibition of COX-2) [2]: 14.87%; IC50 [2, 6]: 72.52 ± 0.51 µM; IL-6 (pg/ml)% (percentage of inhibition of IL-6) [3]: 11.42%; TNF-α (pg/ml)% (percentage of inhibition of TNF-α) [4]: 19.87%

Second part, led by results:

IC50 [1] [µM] | Selectivity IC50 COX-1/IC50 COX-2 [1] [%] | inhibition at 40 µg/mL [1] [%] | IC50 [2] [µM] | inhibition at 40 µg/mL [2] [%] | SMILES | further results
– | – | 12.3 | – | 4.45 | O=C(c1ccc(C(F)(F)F)cc1)C1C(c2cc3ccccc3o2)C2C3CCCCC3CN2[C@@]12C(=O)Nc1ccc(Br)cc12 (stereo partly drawn) [Compound 5k, (3S)-1'-(Benzofuran-2-yl)-5-bromo-2'-(4-(trifluoromethyl)benzoyl)-1',2',5',5a',6',7',8',9',9a',9b'-decahydro-spiro[indoline-3,3'-pyrrolo[2,1-a]isoindol]-2-one] | inhibition of IL-6 release (in words) [3]: markedly inhibited; also recorded: most effective; also recorded: high potency; inhibition of TNF-α release (in words) [4]: markedly inhibited; also recorded: most effective; also recorded: high potency
– | – | 9.43 | – | 1.8 | O=C(c1ccc(F)cc1)C1C(c2cc3ccccc3o2)C2C3CCCCC3CN2[C@@]12C(=O)Nc1ccc(Br)cc12 (stereo partly drawn) [Compound 5e, (3S)-1'-(Benzofuran-2-yl)-5-bromo-2'-(4-fluorobenzoyl)-1',2',5',5a',6',7',8',9',9a',9b'-decahydrospiro-[indoline-3,3'-pyrrolo[2,1-a]isoindol]-2-one] | inhibition of IL-6 release (in words) [3]: markedly inhibited; also recorded: most effective; also recorded: high potency; inhibition of TNF-α release (in words) [4]: markedly inhibited; also recorded: most effective; also recorded: high potency
– | – | 19.8 | – | 2.76 | O=C(c1ccc(Br)cc1)C1C(c2cc3ccccc3o2)C2C3CCCCC3CN2[C@@]12C(=O)Nc1ccc(Br)cc12 (stereo partly drawn) [Compound 5g, (3S)-1'-(Benzofuran-2-yl)-5-bromo-2'-(4-bromobenzoyl)-1',2',5',5a',6',7',8',9',9a',9b'-decahydrospiro-[indoline-3,3'-pyrrolo[2,1-a]isoindol]-2-one] | inhibition of IL-6 release (in words) [3]: markedly inhibited; also recorded: most effective; also recorded: high potency; inhibition of TNF-α release (in words) [4]: markedly inhibited; also recorded: most effective; also recorded: high potency
– | – | 32.1 | – | 5.92 | O=C(c1ccc(Br)cc1)C1C(c2cc3ccccc3o2)C2C3CCCCC3CN2[C@@]12C(=O)Nc1ccc(Cl)cc12 (stereo partly drawn) [Compound 5f, (3S)-1'-(Benzofuran-2-yl)-2'-(4-bromobenzoyl)-5-chloro-1',2',5',5a',6',7',8',9',9a',9b'-decahydrospiro-[indoline-3,3'-pyrrolo[2,1-a]isoindol]-2-one] | inhibition of IL-6 release (in words) [3]: markedly inhibited; also recorded: most effective; also recorded: high potency; inhibition of TNF-α release (in words) [4]: markedly inhibited; also recorded: most effective; also recorded: high potency
37 ± 1.54 | 49 | 40.8 | 76.2 ± 1.46 | 8.33 | O=C(c1ccc(F)cc1)C1C(c2cc3ccccc3o2)C2CSCN2[C@@]12C(=O)Nc1ccc(Cl)cc12 (stereo partly drawn) [Compound 5c, (3S)-7'-(Benzofuran-2-yl)-5-chloro-6'-(4-fluorobenzoyl)-1',6',7',7a'-tetrahydro-3'H-spiro[indoline-3,5'-pyrrolo[1,2-c]thiazol]-2-one] | –
31.25 ± 0.24 | – | 47.7 | 58.8 ± 1.58 | 19.8 | O=C(c1ccc(C(F)(F)F)cc1)C1C(c2cc3ccccc3o2)C2CSCN2[C@@]12C(=O)Nc1ccc(Cl)cc12 (stereo partly drawn) [Compound 5l, (3S)-7'-(Benzofuran-2-yl)-5-chloro-6'-(4-(trifluoromethyl)benzoyl)-1',6',7',7a'-tetrahydro-3'H-spiro-[indoline-3,5'-pyrrolo[1,2-c]thiazol]-2-one] | –
35.7 ± 0.51 | 42 | 41.7 | 84.7 ± 1.16 | 9.8 | O=C(c1ccc(Br)cc1)C1C(c2cc3ccccc3o2)C2CSCN2[C@@]12C(=O)Nc1ccc(Br)cc12 (stereo partly drawn) [Compound 5h, (3S)-7'-(Benzofuran-2-yl)-5-bromo-6'-(4-bromobenzoyl)-1',6',7',7a'-tetrahydro-3'H-spiro[indoline-3,5'-pyrrolo[1,2-c]thiazol]-2-one] | –
– | – | 19.8 | – | 7.77 | O=C(c1ccc(F)cc1)C1C(c2cc3ccccc3o2)C2C3CCCCC3CN2[C@@]12C(=O)Nc1ccc(Cl)cc12 (stereo partly drawn) [Compound 5d, (3S)-1'-(benzofuran-2-yl)-5-chloro-2'-(4-fluorobenzoyl)-1',2',5',5a',6',7',8',9',9a',9b'-decahydrospiro-[indoline-3,3'-pyrrolo[2,1-a]isoindol]-2-one] | inhibition of IL-6 release (in words) [3]: markedly inhibited; also recorded: most effective; also recorded: high potency; inhibition of TNF-α release (in words) [4]: markedly inhibited; also recorded: most effective; also recorded: high potency
38.2 ± 0.96 | 45 | 52.8 | 85.7 ± 1.51 | 9.98 | O=C(c1ccc(Cl)cc1)C1C(c2cc3ccccc3o2)C2CSCN2[C@@]12C(=O)Nc1ccc(Cl)cc12 (stereo partly drawn) [Compound 5p, (3S)-7'-(Benzofuran-2-yl)-5-chloro-6'-(4-chlorobenzoyl)-1',6',7',7a'-tetrahydro-3'H-spiro[indoline-3,5'-pyrrolo[1,2-c]thiazol]-2-one] | –
20.4 ± 0.55 | 23 | 57.4 | 88.1 ± 1.78 | 11.2 | O=C(c1ccccc1)C1C(c2cc3ccccc3o2)C2CSCN2[C@@]12C(=O)Nc1ccc(Cl)cc12 (stereo partly drawn) [Compound 5a, (3S)-7'-(Benzofuran-2-yl)-6'-benzoyl-5-chloro-1',6',7',7a'-tetrahydro-3'H-spiro[indoline-3,5'-pyrrolo[1,2-c]thiazol]-2-one] | –
29.55 ± 0.19 | 41 | 44.5 | 71.2 ± 1.29 | 17.9 | O=C(c1ccc(Br)cc1)C1C(c2cc3ccccc3o2)C2CSCN2[C@@]12C(=O)Nc1ccc(Cl)cc12 (stereo partly drawn) [Compound 5i, (3S)-7'-(Benzofuran-2-yl)-6'-(4-bromobenzoyl)-5-chloro-1',6',7',7a'-tetrahydro-3'H-spiro[indoline-3,5'-pyrrolo[1,2-c]thiazol]-2-one] | –
